Patent publication US10954214B2 (Janssen Pharmaceutica NV, priority 2016, dated 2021)

Key:
[1] = test system: IL10 secretion by OCI-LY3 ABC-DLBCL cells; assay: Human IL10 Mesoscale assay (OCI-LY3); format: cell-based; settings: Homo sapiens, 24 h
Method in brief: (§1)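 After 24 h at 37 °C with test compounds (15 μM down to 58.6 nM, 9 twofold steps, 0.3% DMSO), IL6 and IL10 secreted by 100,000 OCI-LY3 or TMD8 cells per well were measured in supernatants with a Mesoscale immunoassay. Data were scaled between DMSO wells (high) and RN486 treatment (low).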

[2] = test system: TMD8 cells; assay: 4-day proliferation assay, TMD8; format: cell-based; settings: Homo sapiens, 96 h, 4 days incubation, CellTiterGLO, read-out: Anti-proliferation: TMD-8 IC50
Method in brief: (§2)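 Each line was plated at 10,000 cells per well for linear growth, with no beta-mercaptoethanol during the assay. OCI-Ly3 cells were below passage 10.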

[3] = test system: IL6 secretion by TMD8 ABC-DLBCL cells; assay: Human IL6 Mesoscale assay (TMD-8); format: cell-based; settings: Homo sapiens, TMD8; TMD-8 cells, 24 h
Method in brief: as §1

[4] = biological target: full-length MALT1 protein (Strep-MALT1(1-824)-His) (Homo sapiens (Human), UniProt Q9UDY8); assay: MALT1 Biochemical Protease Assay (Ac-LRSR-AMC substrate); settings: 10 nM FL MALT1, 200 μM Ac-LRSR-AMC, 4 h at RT; read-out: MALT1_Biochemical activity (Ac-LRSR-amc) IC50
Method in brief: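 Fluorescence from AMC release off the quenched LRSR substrate was read after a 4 h reaction at RT. Values were normalised to no-enzyme and uninhibited controls and fitted for IC50 and Hill coefficient.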

[5] = test system: OCI-Ly3 cells; assay: 4-day proliferation assay, OCI-Ly3; format: cell-based, human; settings: Homo sapiens, 96 h, 4 days incubation, CellTiterGLO, read-out: Anti-proliferation: OCI-LY-3 IC50
Method in brief: as §2

[6] = test system: IL6 secretion by OCI-LY3 ABC-DLBCL cells; assay: Human IL6 Mesoscale assay (OCI-LY3); format: cell-based; settings: Homo sapiens, 24 h
Method in brief: as §1

[7] = test system: IL10 secretion by TMD8 ABC-DLBCL cells; assay: Human IL10 Mesoscale assay (TMD-8); format: cell-based; settings: Homo sapiens, TMD8; TMD-8 cells, 24 h
Method in brief: as §1

[8] = test system: Jurkat cells; assay: PMA Induced IL2 Production In Jurkat Cells; format: cell-based; settings: Homo sapiens, PMA/Ionomycin, 20 h, read-out: IL-2 prod h Jurkat PMA IC50
Procedure: Jurkat cells were maintained in complete RPMI 1640 media containing 10% fetal bovine serum, 10 mM HEPES, 100 units/mL of penicillin and 100 μg/mL of streptomycin. Prior to the assay, compounds were made 2- to 4-fold serial dilutions in DMSO. A volume of 10 μL of DMSO-diluted compound in each well were further diluted into 240 μL RPMI1640 complete media. Jurkat cells were harvested by centrifuge at 1200 RPM for 5 min, washed one time with RPMI 1640 media, and suspended in fresh complete RPMI 1640 media at concentration of 1.25×10^6 cell/mL. A volume of 160 uL of Jurkat cells (2×10^5 cells) were seeded in each well of 96 well plate-bottom plates. A volume of 20 uL of diluted compound in RMPI 1640 complete media were added to each well and incubated with Jurkat cells for 30 min at 37° C. in a 5% CO2 incubator. A volume 20 μL of diluted PMA/Ionomycin (81 nM/1.3 uM respectively, ebioscience, catalog number 00-4970-93) in RMPI 1640 complete media were added to each well. After incubation at 37° C. in 5% CO2 incubator for 20 h, supernatants were harvested. IL-2 concentration was assessed by ELISA (IL2 Duoset, R&D Systems, catalog number DY202). Colorimetric intensity at 450 nm was read by Spectramax plate reader and analyzed with Softmax Pro software. Cell viability was assessed by Cell Titer Glo kit (Promega, catalog number G7571) using Victor Luminescence reader (Victor 3V 4202938 by Perkin Elmer).

Chain of full-length MALT1 protein (Strep-MALT1(1-824)-His) (Q9UDY8 whole entry): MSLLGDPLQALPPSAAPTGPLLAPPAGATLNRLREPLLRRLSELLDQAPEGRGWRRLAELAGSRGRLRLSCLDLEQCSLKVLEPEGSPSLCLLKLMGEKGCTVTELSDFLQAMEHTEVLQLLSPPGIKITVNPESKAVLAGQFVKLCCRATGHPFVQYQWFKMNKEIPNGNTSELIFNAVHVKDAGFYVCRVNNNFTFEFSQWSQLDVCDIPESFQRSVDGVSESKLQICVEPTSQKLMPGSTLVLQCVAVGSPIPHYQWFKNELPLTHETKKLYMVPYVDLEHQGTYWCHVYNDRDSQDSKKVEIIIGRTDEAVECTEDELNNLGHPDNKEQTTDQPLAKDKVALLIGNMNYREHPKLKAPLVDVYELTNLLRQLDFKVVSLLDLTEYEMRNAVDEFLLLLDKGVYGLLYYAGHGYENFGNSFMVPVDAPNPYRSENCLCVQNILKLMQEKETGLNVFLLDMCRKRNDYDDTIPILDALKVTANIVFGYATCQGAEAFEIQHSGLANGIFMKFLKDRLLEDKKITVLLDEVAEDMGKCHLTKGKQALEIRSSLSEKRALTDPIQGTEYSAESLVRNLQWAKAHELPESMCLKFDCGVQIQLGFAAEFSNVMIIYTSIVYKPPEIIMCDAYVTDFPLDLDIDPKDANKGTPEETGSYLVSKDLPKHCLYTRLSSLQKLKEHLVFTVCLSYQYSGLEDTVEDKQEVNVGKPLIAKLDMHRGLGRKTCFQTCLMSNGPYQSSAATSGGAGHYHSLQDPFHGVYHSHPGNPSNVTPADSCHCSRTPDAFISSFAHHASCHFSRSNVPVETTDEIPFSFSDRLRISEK

| IC50 [1] [nM] | IC50 [3] [nM] | IC50 [4] [nM] | IC50 [5] [nM] | IC50 [6] [nM] | IC50 [7] [nM] | IC50 [8] [nM] | Structure (SMILES) | IC50 [2] [nM] |
| --- | --- | --- | --- | --- | --- | --- | --- | --- |
| 17 | 170 | 23 | 819 | 26 | 200 |  | CN(C)Cc1cnn(-c2ncc(NC(=O)c3cnn(-c4cccc5ncccc45)c3C(F)(F)F)cc2Cl)n1 [Cpd 137, N-(5-chloro-6-(4-((dimethylamino)methyl)-2H-1,2,3-triazol-2-yl)pyridin-3-yl)-1-(quinolin-5-yl)-5-(trifluoromethyl)-1H-pyrazole-4-carboxamide] | 2400 |
|  | 166 | 41 | 430 |  |  | 130 | COc1ncc(NC(=O)c2cnn(-c3cccc4ncccc34)c2C(F)(F)F)cc1Cl [Cpd 7, N-(5-Chloro-6-methoxypyridin-3-yl)-1-(quinolin-5-yl)-5-(trifluoromethyl)-1H-pyrazole-4-carboxamide] | ~14100 |
|  | 282 | 214 | ~780 |  |  | 140 | N#Cc1cncc(NC(=O)c2cnn(-c3cccc4ccccc34)c2C(F)(F)F)c1 [Cpd 5, N-(5-Cyanopyridin-3-yl)-1-(naphthalen-1-yl)-5-(trifluoromethyl)-1H-pyrazole-4-carboxamide] | > 20000 |
| 18 | 13 | 15 | 344 | 18 | 25 |  | O=C(Nc1cnc(-n2nccn2)c(Cl)c1)c1cnn(-c2cccc3c(=O)[nH]ccc23)c1C(F)(F)F [Cpd 116, N-(5-chloro-6-(2H-1,2,3-triazol-2-yl)pyridin-3-yl)-1-(1-hydroxyisoquinolin-5-yl)-5-(trifluoromethyl)-1H-pyrazole-4-carboxamide] | 6920 |
|  |  | 389 |  |  |  | 310 | N#Cc1cc(NC(=O)c2cnn(-c3cccc4ccccc34)c2C(F)(F)F)ccn1 [Cpd 1, N-(2-Cyanopyridin-4-yl)-1-(naphthalen-1-yl)-5-(trifluoromethyl)-1H-pyrazole-4-carboxamide] |  |
| 132 | 447 | 33 | 1080 | 95 | 339 |  | N#Cc1cc(NC(=O)c2cnn(-c3ncnc4ccsc34)c2C(F)(F)F)cnc1-n1nccn1 [Cpd 315, N-(5-cyano-6-(2H-1,2,3-triazol-2-yl)pyridin-3-yl)-1-(thieno[3,2-d]pyrimidin-4-yl)-5-(trifluoromethyl)-1H-pyrazole-4-carboxamide] | 6760 |
| 14 | 120 | 16 | 179 | 18 | 123 |  | O=C(Nc1ccc(-n2nccn2)c(Cl)c1)c1cnn(-c2cccc3c(=O)[nH]ccc23)c1C(F)(F)F [Cpd 129, N-(3-chloro-4-(2H-1,2,3-triazol-2-yl)phenyl)-1-(1-oxo-1,2-dihydroisoquinolin-5-yl)-5-(trifluoromethyl)-1H-pyrazole-4-carboxamide] | 2460 |
| 81 | 141 | 12 | 265 | 54 | 162 |  | O=C(Nc1cnc(-n2nccn2)c(Cl)c1)c1cnn(-c2cccc3ncsc23)c1C(F)(F)F [Cpd 153, 1-(benzo[d]thiazol-7-yl)-N-(5-chloro-6-(2H-1,2,3-triazol-2-yl)pyridin-3-yl)-5-(trifluoromethyl)-1H-pyrazole-4-carboxamide] | 3800 |
| 40 | 110 |  | 411 | 34 | 100 |  | N#Cc1cc(NC(=O)c2cnn(-c3ccnc4ccccc34)c2C(F)(F)F)ccc1-n1nccn1 | 3800 |
| 95 |  | 45 | 1590 | 117 |  |  | Cc1nc(-n2nccn2)c(C#N)cc1NC(=O)c1cnn(-c2cccc3c(=O)[nH]ccc23)c1C(F)(F)F [Cpd 176, N-(5-cyano-2-methyl-6-(2H-1,2,3-triazol-2-yl)pyridin-3-yl)-1-(1-oxo-1,2-dihydroisoquinolin-5-yl)-5-(trifluoromethyl)-1H-pyrazole-4-carboxamide] | > 20000 |
| 10 | 54 | 12 | 1210 | 13 | 46 |  | O=C(Nc1cnc(-n2ncc(CO)n2)c(Cl)c1)c1cnn(-c2cccc3c(=O)[nH]ccc23)c1C(F)(F)F [Cpd 115, N-(5-chloro-6-(4-(hydroxymethyl)-2H-1,2,3-triazol-2-yl)pyridin-3-yl)-1-(1-oxo-1,2-dihydroisoquinolin-5-yl)-5-(trifluoromethyl)-1H-pyrazole-4-carboxamide] | 20000 |
| 71 |  | 550 | 464 | 95 |  |  | O=C(Nc1cnc(-n2nccn2)c(Cl)c1)c1cnn(-c2cc(=O)[nH]c3ccccc23)c1C(F)(F)F [Cpd 418, N-(5-chloro-6-(2H-1,2,3-triazol-2-yl)pyridin-3-yl)-1-(2-oxo-1,2-dihydroquinolin-4-yl)-5-(trifluoromethyl)-1H-pyrazole-4-carboxamide] | 3630 |
| 2630 | > 3020 | 58 | 540 | > 3020 | > 3020 |  | O=C(Nc1cnc(-n2nccn2)c(Cl)c1)c1cnn(-c2cccc3scnc23)c1C(F)(F)F [Cpd 306, 1-(benzo[d]thiazol-4-yl)-N-(5-chloro-6-(2H-1,2,3-triazol-2-yl)pyridin-3-yl)-5-(trifluoromethyl)-1H-pyrazole-4-carboxamide] | 1510 |
| 166 |  | 58 | 617 | 219 |  |  | N#Cc1cc(NC(=O)c2cnn(-c3ccc(F)c4ncccc34)c2C(F)(F)F)cnc1-n1nccn1 [Cpd 308, N-(5-cyano-6-(2H-1,2,3-triazol-2-yl)pyridin-3-yl)-1-(8-fluoroquinolin-5-yl)-5-(trifluoromethyl)-1H-pyrazole-4-carboxamide] | 4570 |
| 182 |  | 72 | 1750 | 166 |  |  | Cc1nc(-c2ccn(C)n2)c(Cl)cc1NC(=O)c1cnn(-c2cccc3c(=O)[nH]ccc23)c1C(F)(F)F [Cpd 169, N-(5-chloro-2-methyl-6-(1-methyl-1H-pyrazol-3-yl)pyridin-3-yl)-1-(1-oxo-1,2-dihydroisoquinolin-5-yl)-5-(trifluoromethyl)-1H-pyrazole-4-carboxamide] | 8910 |
| 120 |  | 28 | 782 | 117 |  |  | O=C(Nc1cnc(-n2nccn2)c(Cl)c1)c1cnn(-c2cccc3ncc(Cl)n23)c1C(F)(F)F [Cpd 201, N-(5-chloro-6-(2H-1,2,3-triazol-2-yl)pyridin-3-yl)-1-(3-chloroimidazo[1,2-a]pyridin-5-yl)-5-(trifluoromethyl)-1H-pyrazole-4-carboxamide] | 3630 |
| 42 |  | 25 | 593 | 46 |  |  | O=C(Nc1cnc(-c2nnco2)c(Cl)c1)c1cnn(-c2cccc3ncccc23)c1C(F)(F)F [Cpd 192, N-(5-chloro-6-(1,3,4-oxadiazol-2-yl)pyridin-3-yl)-1-(quinolin-5-yl)-5-(trifluoromethyl)-1H-pyrazole-4-carboxamide] | 4570 |
| 91 |  | 26 | 641 | 115 |  |  | Cc1nc(-n2nccn2)c(Cl)cc1NC(=O)c1cnn(-c2cccn3nccc23)c1C(F)(F)F | 3020 |
